Paper PMC12371494, “Discovery of YTHDF2 Ligands by Fragment-Based Design” (ACS Bio & Med Chem Au, 2025)
Values joined by “and” are separate entries in the source; they are usually repeats but may differ in a detail not shown here. Equal values may be shown once. Read-outs that look alike come from different tables or passages of the source.

Assays:
YTHDC2 = target: T1, YTHDC2 (Homo sapiens, UniProt Q9H6S0); test: DNA-fluorescence polarization (FP) competition assay, DC2; assay type: binding; conditions: for Kd: Cheng-Prusoff from FP IC50, probe Kd 7 nM, two biological replicates
T1 construct: YTH domain of YTHDC2 (residues 1285–1424, cloned into the pGEX-6P-1 vector); made in house; host or cells: Rosetta (DE3) cells (E. coli)
T1 sequence (Q9H6S0 1285-1424): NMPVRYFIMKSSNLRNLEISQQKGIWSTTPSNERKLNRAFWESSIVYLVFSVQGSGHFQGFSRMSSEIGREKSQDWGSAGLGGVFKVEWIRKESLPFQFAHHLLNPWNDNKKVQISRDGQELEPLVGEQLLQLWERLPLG
Procedure: (§1) The binding affinity for DC1 could not be evaluated by HTRF because of interference of the compounds with the assay, which has a smaller assay window when performed with DC1 compared to the DF proteins. Thus, the FP assay was used to evaluate binding to DC1 and DC2.
The N-terminally GST-tagged YTH domain of YTHDC2 (residues 1285–1424, cloned into the pGEX-6P-1 vector) was overexpressed in Rosetta (DE3) cells grown overnight at 20 °C following induction with 0.4 mM isopropyl-β-D-thiogalactopyranoside (IPTG) at an OD600 of 0.8. The cells were harvested and resuspended in a lysis buffer containing 100 mM Tris–HCl (pH 8.0) and 500 mM NaCl. After cell lysis, the lysate was clarified by centrifugation at 48,000g for 1 h, and the soluble proteins were loaded onto a column packed with Glutathione Sepharose 4B (GE Healthcare), then eluted with 20 mM reduced glutathione in lysis buffer. Finally, a size-exclusion chromatography step (HiLoad 16/600 Superdex 200 pg column, GE Healthcare) was performed to further purify the protein in 20 mM Tris–HCl (pH 7.4) and 150 mM NaCl.
(§2) For fluorescence polarization (FP) experiments, a 5′-fluorescein-labeled m^6A-DNA probe (5′-FAM-[…](m6A)-CTAAGCT-3′) was synthesized by Microsynth AG.
(§3) The final concentration of the fluorescein-labeled DNA was kept constant at 3 nM. For YTHDC2 measurements, the protein concentration was set to 25 nM, while for YTHDF2 measurements, it was set to 10 nM, and for YTHDC1, it was set at 15 nM. The compound concentration was serially diluted to obtain the dose–response curve. The competition experiments were conducted in a final volume of 20 μL in a buffer containing 20 mM Tris–HCl (pH 7.4), 150 mM NaCl, and 0.01% bovine serum albumin (BSA), using a 384-well black flat-bottomed microplate (Corning 3575).
(§4) After incubating the mixture for 1 h, the anisotropy values were measured using a Tecan SPARK plate reader with 485/20 nm excitation and 535/25 nm emission polarization filters, suitable for fluorescein, at 25 °C. To obtain the equilibrium dissociation constant (K d), the IC50 values were first derived by fitting a dose–response curve to the data using nonlinear regression analysis in GraphPad Prism. These IC50 values were then converted to K d by using the Cheng–Prusoff equation: Kd=IC50/1+[L]/Kdprobe
(§5) IC50 is the observed value from FP assay, [L] is the probe concentration used, and K d ^probe is the binding affinity of probe for the target.

GST-YTHDF2 [1] = target: T2, GST-YTHDF2 (Homo sapiens, UniProt Q9Y5A9); test: HTRF-based binding assay, competition with m6A-oligoRNA, DF2; conditions: for IC50: dose-response, competitor m6A-oligoRNA, read-out: DF2 IC50 (HTRF assay); for LE (ligand efficiency, DF2): LE = -RT ln IC50/HAC from HTRF IC50; for Single-dose residual signal at 100 µM, DF2: 100 µM compound, normalized
T2 construct: made in house
T2 sequence (Q9Y5A9 1-579): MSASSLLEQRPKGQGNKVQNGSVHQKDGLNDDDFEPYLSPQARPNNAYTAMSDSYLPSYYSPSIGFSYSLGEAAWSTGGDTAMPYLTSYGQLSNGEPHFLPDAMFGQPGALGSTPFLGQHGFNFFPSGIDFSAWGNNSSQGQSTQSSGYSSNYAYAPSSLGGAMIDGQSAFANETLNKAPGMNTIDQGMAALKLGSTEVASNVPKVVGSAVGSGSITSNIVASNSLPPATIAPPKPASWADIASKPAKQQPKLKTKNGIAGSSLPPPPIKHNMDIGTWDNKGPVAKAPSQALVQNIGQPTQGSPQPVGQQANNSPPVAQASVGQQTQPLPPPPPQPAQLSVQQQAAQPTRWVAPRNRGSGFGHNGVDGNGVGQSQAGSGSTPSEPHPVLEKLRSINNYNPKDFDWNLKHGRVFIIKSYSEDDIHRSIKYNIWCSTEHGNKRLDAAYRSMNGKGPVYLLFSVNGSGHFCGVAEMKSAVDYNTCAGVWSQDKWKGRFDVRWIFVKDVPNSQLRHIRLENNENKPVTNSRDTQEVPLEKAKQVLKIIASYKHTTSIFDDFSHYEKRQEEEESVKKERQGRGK

YTHDF2 = target: T3, YTHDF2 (Homo sapiens, UniProt Q9Y5A9); test: DNA-fluorescence polarization (FP) competition assay, DF2; assay type: binding
T3 sequence (Q9Y5A9 1-579): T2 sequence (Q9Y5A9 1-579)
Procedure: An FP competition assay was used to further validate the binding of the compounds to DF2. The main difference with respect to a previously published FP assay is the use of an oligo-DNA as competitor ligand (see Materials and Methods section). […] These differences might originate from the varying conditions in the two assays, such as the competitor mRNA (5′-biotin-[…](m6A)-CUAAGCU-3′) in HTRF and DNA (5′-FAM-[…](m6A)-CTAAGCT-3′) in FP, the salt concentration (150 mM NaCl and 100 mM KF in HTRF, and 150 mM NaCl in FP), and the pH (7.5 in HTRF and 7.4 in FP). The FP-based assay was also employed to assess the selectivity against DC1 and DC2 (see Selectivity section).
as §2, §3, §4, §5

YTHDC1 = YTHDC1 (Homo sapiens, UniProt Q96MU7); test: DNA-fluorescence polarization (FP) competition assay, DC1; assay type: binding
Procedure: as §1, §2, §3, §4, §5

GST-YTHDF1 = target: T4, GST-YTHDF1 (Homo sapiens, UniProt Q9BYJ9); test: HTRF-based binding assay, DF1; conditions: HTRF, 100 µM compound, normalized
T4 construct: made in house
T4 sequence (Q9BYJ9 1-559): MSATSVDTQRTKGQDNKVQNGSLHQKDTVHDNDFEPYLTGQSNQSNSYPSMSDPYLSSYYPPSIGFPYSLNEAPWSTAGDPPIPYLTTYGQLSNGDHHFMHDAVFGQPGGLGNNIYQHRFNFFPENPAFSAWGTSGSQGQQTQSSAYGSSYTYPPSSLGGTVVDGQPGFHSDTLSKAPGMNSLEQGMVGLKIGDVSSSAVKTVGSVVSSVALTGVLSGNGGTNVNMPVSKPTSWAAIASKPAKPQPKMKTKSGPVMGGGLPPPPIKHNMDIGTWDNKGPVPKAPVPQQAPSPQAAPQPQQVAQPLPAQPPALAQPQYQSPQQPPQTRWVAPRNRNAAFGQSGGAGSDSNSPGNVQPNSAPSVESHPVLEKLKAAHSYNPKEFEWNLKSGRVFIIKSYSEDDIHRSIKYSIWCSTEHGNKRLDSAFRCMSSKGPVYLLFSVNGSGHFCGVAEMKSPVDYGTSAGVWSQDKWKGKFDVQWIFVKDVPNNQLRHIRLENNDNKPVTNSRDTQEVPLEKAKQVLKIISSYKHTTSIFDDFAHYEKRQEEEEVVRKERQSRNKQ
Procedure: (§6) The HTRF-based assay was employed to evaluate the selectivity of the series against other DF proteins.
(§7) A dose–response experiment on DF1 and DF3 was conducted for compounds 17, 18, 23, and 27 (Figure S5). Compounds 17, 18, and 27 are active on three DF proteins. […] In contrast, compound 23 is selective for DF2, with residual signals (at the highest employed concentration of 62.5 μM) of 51 and 87% for DF1 and DF3, respectively.
(§8) GST-YTHDC1, GST-YTHDF1, GST-YTHDF2, and GST-YTHDF3 were purified as previously reported. The HTRF assay was assembled as detailed in ref with the only difference being that the starting concentration of the dose–response experiments used for the IC50 determination was variated dependently from the tested compound. The same protocol was applied to the four proteins. The competitive inhibition data of GST-YTHDF1 (single dose experiment at 100 μM compound concentration and dose–response curves), GST-YTHDF3 (single dose experiment at 100 μM compound concentration and dose–response curves), and GST-YTHDF2 (single dose experiment at 100 μM compound concentration) were normalized as described in ref to mitigate interference. The signal was measured as described in ref .

GST-YTHDF3 = target: T5, GST-YTHDF3 (Homo sapiens, UniProt Q7Z739); test: HTRF-based binding assay, DF3; conditions: HTRF, 100 µM compound, normalized
T5 construct: made in house
T5 sequence (Q7Z739 1-585): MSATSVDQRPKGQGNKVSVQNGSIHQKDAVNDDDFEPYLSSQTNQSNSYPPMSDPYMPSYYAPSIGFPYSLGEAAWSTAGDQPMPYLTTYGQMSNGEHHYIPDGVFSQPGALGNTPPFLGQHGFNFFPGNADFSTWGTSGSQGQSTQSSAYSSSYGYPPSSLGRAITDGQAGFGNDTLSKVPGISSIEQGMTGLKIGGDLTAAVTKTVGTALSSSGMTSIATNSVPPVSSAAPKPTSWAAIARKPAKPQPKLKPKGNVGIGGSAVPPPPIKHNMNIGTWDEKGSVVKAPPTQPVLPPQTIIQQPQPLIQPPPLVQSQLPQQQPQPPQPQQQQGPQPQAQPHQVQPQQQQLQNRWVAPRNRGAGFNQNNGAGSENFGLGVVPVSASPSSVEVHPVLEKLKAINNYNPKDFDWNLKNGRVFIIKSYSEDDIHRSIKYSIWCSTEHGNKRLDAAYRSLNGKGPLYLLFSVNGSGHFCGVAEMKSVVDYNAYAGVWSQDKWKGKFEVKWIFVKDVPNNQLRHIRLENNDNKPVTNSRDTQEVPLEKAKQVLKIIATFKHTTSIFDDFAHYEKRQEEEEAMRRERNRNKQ
Procedure: as §6, §7, §8

GST-YTHDF2 [2] = target: T2, GST-YTHDF2; conditions: HTRF, 1 mM compound; cited from earlier work
[3] = Cheng-Prusoff from FP IC50, probe Kd 5 nM, two biological replicates

Row | Compound | Kd (YTHDC2) | IC50 (GST-YTHDF2 [1]) | Single-dose residual signal at 100 µM, DF1 (GST-YTHDF1) | Single-dose residual signal at 100 µM, DF3 (GST-YTHDF3) | Single-dose residual signal at 100 µM, DF2 (GST-YTHDF2 [1]; HTRF) | further results
1 | CCOC(=O)c1ccc(Cc2cc3c(=O)[nH]c(=S)[nH]c3s2)cc1 [Compound S86] | 210 µM | – | – | – | – | % at 125 μM (printed in IC50 column, IC50 could not be determined) (GST-YTHDF2 [1]; HTRF, 125 μM compound): 63%
2 | Cc1csc2[nH]c(=S)[nH]c(=O)c12 [Compound S88] | 120 µM | 28 µM | – | – | – | Kd (YTHDF2; [3]): 8.1 µM
3 | COc1ccc(-c2cc3c(=O)[nH]c(=S)[nH]c3s2)cc1 [Compound 28] | 9.1 µM | 22 µM | – | – | – | Kd (YTHDF2): 1.9 µM; Kd (YTHDC1): 9.4 µM; LE (ligand efficiency, DF2) (GST-YTHDF2 [1]): 0.34 kcal/(mol HAC)
4 | O=C(O)c1ccc(Cc2cc3c(=O)[nH]c(=S)[nH]c3s2)cc1 [Compound S87] | 100 µM | 29 µM | – | – | – | Kd (YTHDF2; [3]): 18 µM
5 | Cc1c(C(C)O)sc2[nH]c(=S)[nH]c(=O)c12 (racemic) [Compound S79] | > 1000 µM | 27 µM | 31% | 30% | 9% | –
6 | Cc1cc2c(=O)[nH]c(=S)[nH]c2s1 [Compound S78] | > 1000 µM | 38 µM | 17% | 22% | 8% | –
7 | O=c1[nH]c(=S)[nH]c2scc(-c3ccccc3)c12 [Compound S74] | > 1000 µM | 94 µM | – | – | – | –
8 | Cc1c(C(=O)NCCCCO)sc2[nH]c(=S)[nH]c(=O)c12 [Compound S83] | > 1000 µM | 25 µM | 17% | 40% | 9% | –
9 | O=C(O)c1ccc(-c2cc3c(=O)[nH]c(=S)[nH]c3s2)cc1 [Compound 30] | 5 µM and 4.9 µM | – | – | – | – | Kd (YTHDF2): 1.9 µM; Kd (YTHDC1): 7.5 µM
10 | CCOC(=O)c1ccc(-c2cc3c(=O)[nH]c(=S)[nH]c3s2)cc1 [Compound 29] | 8.4 µM | 21 µM | – | – | – | Kd (YTHDF2): 3.1 µM; Kd (YTHDC1): 5 µM; Selectivity DF2 over DC1 (Kd ratio DC1/DF2) (YTHDC1; FP Kd values): 2–4 fold; Selectivity DF2 over DC2 (Kd ratio DC2/DF2) (YTHDC2; FP Kd values): 2–4 fold; LE (ligand efficiency, DF2) (GST-YTHDF2 [1]): 0.29 kcal/(mol HAC)
11 | Cc1c(C(=O)O)sc2[nH]c(=S)[nH]c(=O)c12 [Compound S80] | – | 32 µM | 15% | 29% | 9% | –
12 | CNc1ncnc2[nH]cnc12 [m^6-Adenine] | – | – | – | – | – | Residual signal at 1 mM concentration (GST-YTHDF2 [2]): 75 (Ref. ^13) %
